In this assay the test system is L1210 leukemia ip in BDF1 mice, survival T/C. Put plainly: NCI In Vivo Anticancer Drug Screen. Data for tumor model L1210 Leukemia (intraperitoneal) in B6D2F1 (BDF1) mice. As to conditions: endpoint: mean survival time, higher = longer survival. The method in brief:
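Tumor cells were implanted, animals were treated, and survival was followed. The result divides the treated measurement by the vehicle-control measurement.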

Where [1] appears, read: dose: 100.0 mg/kg/injection, schedule: Q01DX009 (ip), vehicle: Klucel (hydroxypropylcellulose) (HPC).
Where [2] appears, read: dose: 200.0 mg/kg/injection, schedule: Q01DX009 (ip), vehicle: Klucel (hydroxypropylcellulose) (HPC).
Setting [3] is: dose: 50.0 mg/kg/injection, schedule: Q01DX001 (ip), vehicle: carboxymethylcellulose (CMC).
The mark [4] stands for this setting: dose: 100.0 mg/kg/injection, schedule: Q01DX001 (ip), vehicle: carboxymethylcellulose (CMC).
Where [5] appears, read: dose: 200.0 mg/kg/injection, schedule: Q01DX001 (ip), vehicle: carboxymethylcellulose (CMC).
The mark [6] stands for this setting: dose: 100.0 mg/kg/injection, schedule: Q04DX003 (ip), vehicle: Klucel (hydroxypropylcellulose) (HPC).
Where [7] appears, read: dose: 200.0 mg/kg/injection, schedule: Q04DX003 (ip), vehicle: Klucel (hydroxypropylcellulose) (HPC).
Setting [8] is: dose: 400.0 mg/kg/injection, schedule: Q04DX003 (ip), vehicle: Klucel (hydroxypropylcellulose) (HPC).
Where [9] appears, read: dose: 100.0 mg/kg/injection, schedule: Q04DX003 (ip), vehicle: saline.
Where [10] appears, read: dose: 200.0 mg/kg/injection, schedule: Q04DX003 (ip), vehicle: saline.
Where [11] appears, read: dose: 400.0 mg/kg/injection, schedule: Q04DX003 (ip), vehicle: saline.
Where [12] appears, read: dose: 50.0 mg/kg/injection, schedule: Q01DX001 (ip), vehicle: saline.
[13] abbreviates: dose: 100.0 mg/kg/injection, schedule: Q01DX001 (ip), vehicle: saline.
Setting [14] is: dose: 100.0 mg/kg/injection, schedule: Q04DX002 (ip), vehicle: Klucel (hydroxypropylcellulose) (HPC).

Values joined by “and” are separate entries in the source; they are usually repeats but may differ in a detail not shown here. Identical values can stand only once. Inconclusive results and toxic doses are left out.

`Nc1nc(Cl)nc(C(Cl)(Cl)Cl)c1Cl` (tested in a mixture with another compound): the T/C runs as follows: (dose: 50.0 mg/kg/injection, schedule: Q01DX009 (ip), vehicle: Klucel (hydroxypropylcellulose) (HPC)) 94 % of control; under setting [1], 87 % of control; under setting [2], 97 % of control.

With `Nc1ncnc2nc[nH]c12.[Cl][Pt][Cl]`, the T/C by setting is: (dose: 100.0 mg/kg/injection, schedule: Q01DX009 (ip), vehicle: water) 101 % of control; (dose: 100.0 mg/kg/injection, schedule: Q04DX003 (ip), vehicle: water) 94 % of control; (dose: 200.0 mg/kg/injection, schedule: Q01DX009 (ip), vehicle: water) 96 % of control; (dose: 200.0 mg/kg/injection, schedule: Q04DX003 (ip), vehicle: water) 87 % of control; (dose: 400.0 mg/kg/injection, schedule: Q01DX009 (ip), vehicle: water) 90 % of control; (dose: 400.0 mg/kg/injection, schedule: Q04DX003 (ip), vehicle: water) 94 % of control.

For `N#C/C(=C/c1ccccc1)C(=O)O`, the T/C is 87 % of control under setting [3], 96 % of control under setting [4] and 107 % of control under setting [5].

For `CNC(=O)NNC(=O)c1ccc(Cl)cc1`, the T/C runs as follows: (dose: 25.0 mg/kg/injection, schedule: Q01DX009 (ip), vehicle: saline with Tween-80) 91 % of control; (dose: 50.0 mg/kg/injection, schedule: Q01DX009 (ip), vehicle: saline with Tween-80) 94 % of control.

With `CCCCCCNP(=O)(OCC)OCC`, the T/C runs as follows: under setting [3], 95 % of control; under setting [4], 93 % of control; under setting [5], 101 % of control.

Consider `Cc1cccc(C)c1NC(=O)Nc1ccc2c(c1)OCO2`, for which the T/C runs as follows: under setting [6], 93 % of control; under setting [7], 92 % of control; under setting [8], 88 % of control.

As for `CNC(=S)Nc1ncn[nH]1`, the T/C reads like this: under setting [9], 94 % of control; under setting [10], 100 % of control; under setting [11], 86 % of control.

Regarding `O=c1[nH]cnc2c1nnn2C1CC(O)C(CO)O1` (stereo not drawn), the T/C runs as follows: under setting [12], 106 % of control; under setting [13], 116 % of control; under setting [9], 100 % of control; under setting [10], 103 % of control; under setting [11], 111 % of control.

Turning to `CCCCCCCNC(=S)NNC(=O)CCCC(=O)NNC(=S)NCCCCCCC`, the T/C by setting is: under setting [12], 98 % of control; under setting [13], 96 % of control; (dose: 200.0 mg/kg/injection, schedule: Q01DX001 (ip), vehicle: saline) 96 % of control; (dose: 400.0 mg/kg/injection, schedule: Q01DX001 (ip), vehicle: saline) 90 % of control.

On to `NC(CSC(c1ccccc1)(c1ccccc1)c1ccc(Br)cc1)C(=O)O` (stereo not drawn), for which the T/C (dose: 3.13 mg/kg/injection, schedule: Q01DX009 (ip), vehicle: saline) is 155 % of control; the T/C (dose: 6.25 mg/kg/injection, schedule: Q01DX009 (ip), vehicle: saline) was 162 % of control; the T/C (dose: 12.5 mg/kg/injection, schedule: Q01DX009 (ip), vehicle: saline) was 214 % of control; the T/C (dose: 25.0 mg/kg/injection, schedule: Q01DX009 (ip), vehicle: saline) was 111 % of control; the T/C (dose: 75.0 mg/kg/injection, schedule: Q01DX001 (ip), vehicle: other) is 105 % of control; the T/C (dose: 150.0 mg/kg/injection, schedule: Q01DX001 (ip), vehicle: other) was 121 % of control.

For `O=C(/C=C/c1ccncc1)Nc1ccccc1`, the T/C by setting is: (dose: 25.0 mg/kg/injection, schedule: Q04DX002 (ip), vehicle: Klucel (hydroxypropylcellulose) (HPC)) 117 % of control; (dose: 50.0 mg/kg/injection, schedule: Q04DX002 (ip), vehicle: Klucel (hydroxypropylcellulose) (HPC)) 98 % of control; under setting [14], 98 % of control.

On to `Cc1cc(Sc2cc(C)[n+]([O-])c(C)c2)cc(C)[n+]1[O-]`, for which the T/C under setting [6] was 103 % of control, the T/C under setting [7] is 100 % of control and the T/C under setting [8] is 114 % of control.

For `CCOC(=O)c1c(-c2ccc([N+](=O)[O-])cc2)cn(-c2ccccc2)c1C`, the T/C was 91 % of control under setting [14]; 97 % of control (dose: 200.0 mg/kg/injection, schedule: Q04DX002 (ip), vehicle: Klucel (hydroxypropylcellulose) (HPC)); 87 % of control (dose: 400.0 mg/kg/injection, schedule: Q04DX002 (ip), vehicle: Klucel (hydroxypropylcellulose) (HPC)).

Regarding `CNC(=O)C(C)(C)c1ccccc1`, the T/C under setting [1] was 97 % of control; the T/C under setting [6] is 96 % of control; the T/C under setting [2] is 95 % of control; the T/C under setting [7] is 95 % of control; the T/C (dose: 400.0 mg/kg/injection, schedule: Q01DX009 (ip), vehicle: Klucel (hydroxypropylcellulose) (HPC)) was 97 % of control; the T/C under setting [8] is 95 % of control.

Turning to `CCOC(=O)C(CO)NS(=O)(=O)c1ccc(C)cc1` (stereo not drawn), the T/C by setting is: (dose: 75.0 mg/kg/injection, schedule: Q01DX001 (ip), vehicle: saline) 103 % of control; (dose: 75.0 mg/kg/injection, schedule: Q04DX003 (ip), vehicle: saline) 102 % of control; (dose: 150.0 mg/kg/injection, schedule: Q01DX001 (ip), vehicle: saline) 106 % of control; (dose: 150.0 mg/kg/injection, schedule: Q04DX003 (ip), vehicle: saline) 103 % of control; (dose: 300.0 mg/kg/injection, schedule: Q01DX001 (ip), vehicle: saline) 103 % of control; (dose: 300.0 mg/kg/injection, schedule: Q04DX003 (ip), vehicle: saline) 97 % of control.

For the compound `CCC1=CC(=O)C(C)=C(C)C1=O`, the T/C was 100 % of control (dose: 25.0 mg/kg/injection, schedule: Q04DX003 (ip), vehicle: other); 102 % of control (dose: 50.0 mg/kg/injection, schedule: Q04DX003 (ip), vehicle: other); 97 % of control and 102 % of control (dose: 100.0 mg/kg/injection, schedule: Q04DX003 (ip), vehicle: other).

Turning to `O=C(O)CCCOc1ccc(Cl)cc1Cl`, the T/C runs as follows: (dose: 100.0 mg/kg/injection, schedule: Q01DX009 (ip), vehicle: saline with Tween-80) 103 % of control; (dose: 200.0 mg/kg/injection, schedule: Q01DX009 (ip), vehicle: saline with Tween-80) 98 % of control; (dose: 400.0 mg/kg/injection, schedule: Q01DX009 (ip), vehicle: saline with Tween-80) 103 % of control.

For the compound `O=C(NOCCCl)Nc1ccccc1`, the T/C (dose: 125.0 mg/kg/injection, schedule: Q01DX Z (ip), vehicle: carboxymethylcellulose (CMC)) is 96 % of control; the T/C (dose: 200.0 mg/kg/injection, schedule: Q01DX Z (ip), vehicle: carboxymethylcellulose (CMC)) is 96 % of control; the T/C (dose: 250.0 mg/kg/injection, schedule: Q01DX Z (ip), vehicle: carboxymethylcellulose (CMC)) was 107 % of control; the T/C (dose: 500.0 mg/kg/injection, schedule: Q01DX Z (ip), vehicle: carboxymethylcellulose (CMC)) is 95 % of control.

In the case of `O=C1c2cccc3cccc(c23)C(=O)N1CCCCCCCCCCN1C(=O)c2cccc3cccc(c23)C1=O`, the T/C runs as follows: (dose: 50.0 mg/kg/injection, schedule: Q01DX009 (ip), vehicle: gum acacia) 93 % of control; (dose: 100.0 mg/kg/injection, schedule: Q01DX009 (ip), vehicle: gum acacia) 94 % of control and 89 % of control; (dose: 100.0 mg/kg/injection, schedule: Q04DX003 (ip), vehicle: gum acacia) 93 % of control; (dose: 200.0 mg/kg/injection, schedule: Q04DX003 (ip), vehicle: gum acacia) 86 % of control; (dose: 400.0 mg/kg/injection, schedule: Q01DX009 (ip), vehicle: gum acacia) 89 % of control; (dose: 400.0 mg/kg/injection, schedule: Q04DX003 (ip), vehicle: gum acacia) 90 % of control.

On to `O=[N+]([O-])c1ccc(OCc2ccccc2)cc1`, for which the T/C is, setting by setting: (dose: 100.0 mg/kg/injection, schedule: Q04DX003 (ip), vehicle: saline with Tween-80) 96 % of control; (dose: 200.0 mg/kg/injection, schedule: Q04DX003 (ip), vehicle: saline with Tween-80) 92 % of control; (dose: 400.0 mg/kg/injection, schedule: Q04DX003 (ip), vehicle: saline with Tween-80) 94 % of control.
